Read-outs that look alike come from different tables or passages of the source.

This experiment addresses T1, human PF4 (Homo sapiens, UniProt P02776).
T1 construct: PF4 is a 70 amino acid, lysine-rich 7.8 kDa platelet-specific protein; made in house; host or cells: Escherichia coli BL21DE3 pLysS (pT7-7) and/or Drosophila S2 cells
T1 sequence (P02776 32-101): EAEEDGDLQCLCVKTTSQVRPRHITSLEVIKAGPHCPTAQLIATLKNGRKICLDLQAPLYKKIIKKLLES
Kind of experiment: Inhibition of PF4 tetramer formation (BS3 cross-linking, SDS-PAGE). The note with it: for inhibition at 1 µM: 1 μM inhibitor; for inhibition at 1 µM / inhibition at 3 µM / inhibition at 5 µM / inhibition at 10 µM: read-out: % inhibition of PF4 tetramer formation at single concentration of inhibitor; for inhibition at 3 µM: 3 μM inhibitor (column A); for inhibition at 5 µM: 5 μM inhibitor; for inhibition at 10 µM: 10 μM inhibitor (column A). It counts as biochemical. The method in brief: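 Recombinant human wild-type PF4 (E. coli-expressed, heparin-purified), 10 μg/ml in PBS, incubated with compound 15 min at 37° C or 60 min at room temperature, then cross-linked with 0.2 mM BS3 for 30 min at room temperature. Reducing 12% SDS-PAGE; bands quantified as % tetramer, trimer, dimer, monomer versus compound-free control.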

Where [1] appears, read: read-out: IC50 of PF4 tetramer formation inhibition.

In the case of `CC(C)(C)OC(=O)N1CCOC(C(=O)C2C(=O)c3ccc(C(=O)c4ccc5c(c4)C(=O)C(C(=O)C4CN(C(=O)OC(C)(C)C)CCO4)C5=O)cc3C2=O)C1` (stereo not shown) [Example 240, tert-butyl 2-[5-(2-{4-[(tert-butoxy)carbonyl]morpholine-2-carbonyl}-1,3-dioxo-2,3-dihydro-1H-indene-5-carbonyl)-1,3-dioxo-2,3-dihydro-1H-indene-2-carbonyl]morpholine-4-carboxylate], the inhibition at 1 µM was 14% and the inhibition at 3 µM was determined as 32%.
Regarding `CC(C)OCC(=O)C1C(=O)c2ccc(S(=O)(=O)c3ccc4c(c3)C(=O)C(C(=O)COC(C)C)C4=O)cc2C1=O` (stereo not shown) [Example 379, 5-({1,3-dioxo-2-[2-(propan-2-yloxy)acetyl]-2,3-dihydro-1H-inden-5-yl}sulfonyl)-2-[2-(propan-2-yloxy)acetyl]-2,3-dihydro-1H-indene-1,3-dione], the inhibition at 1 µM was 43% and the inhibition at 3 µM stood at 68%. Besides, the IC50 (in general, the midpoint of a concentration-inhibition curve) under setting [1] amounted to 0.66 µM.
Regarding `O=C1c2ccc(Oc3ccc4c(c3)C(=O)C(C(=O)C3CCCCC3)C4=O)cc2C(=O)C1C(=O)C1CCCCC1` (stereo not shown) [Example 286, 2-cyclohexanecarbonyl-5-[(2-cyclohexanecarbonyl-1,3-dioxo-2,3-dihydro-1H-inden-5-yl)oxy]-2,3-dihydro-1H-indene-1,3-dione], the inhibition at 1 µM came to 37% and the inhibition at 3 µM amounted to 47%. The IC50 under setting [1] was 3 µM.
On to `CC(=O)C1(C(=O)OC(C)C)C(=O)c2ccc(Oc3ccc4c(c3)C(=O)CC4=O)cc2C1=O` (stereo not shown) [Example 8, ethyl 2-acetyl-5-(1,3-dioxo-indan-5-yloxy)-1,3-dioxo-indan-2-carboxylic acid isopropyl ester], for which, under setting [1], the IC50 worked out at 3.4 µM.
On to `O=C1CC(=O)c2cc(C(c3ccc4c(c3)C(=O)CC4=O)(C(F)(F)F)C(F)(F)F)ccc21` [Example 13, 5-(2,2,2-trifluoro-1-(5-indan-1,3-dionyl)-1-trifluoromethyl-ethyl)-indan-1,3-dione], for which the inhibition at 5 µM is 16% and the inhibition at 10 µM turned out to be 74%.
Regarding `Cc1ccccc1C(=O)CCC(=O)C1C(=O)c2ccc(S(=O)(=O)c3ccc4c(c3)C(=O)C(C(=O)CCC(=O)c3ccccc3C)C4=O)cc2C1=O` (stereo not shown) [Example 254, 2-[4-(2-methylphenyl)-4-oxobutanoyl]-5-({2-[4-(2-methylphenyl)-4-oxobutanoyl]-1,3-dioxo-2,3-dihydro-1H-inden-5-yl}sulfonyl)-2,3-dihydro-1H-indene-1,3-dione], the inhibition at 1 µM turned out to be 28% and the inhibition at 3 µM was found to be 51%.
In the case of `CO[C@@H](C)C(=O)C1C(=O)c2ccc(Oc3ccc4c(c3)C(=O)C(C(=O)[C@H](C)OC)C4=O)cc2C1=O` (stereo partly drawn) [Example 248, 2-[(2S)-2-methoxypropanoyl]-5-({2-[(2S)-2-methoxypropanoyl]-1,3-dioxo-2,3-dihydro-1H-inden-5-yl}oxy)-2,3-dihydro-1H-indene-1,3-dione], half-maximal inhibition (IC50) was put at 3 µM, the inhibition at 1 µM was 26% and the inhibition at 3 µM came to 56%.
Consider `O=C(c1ccc2c(c1)C(=O)C(C(=O)NCc1ccccc1)C2=O)c1ccc2c(c1)C(=O)C(C(=O)NCc1ccccc1)C2=O` (stereo not shown) [Example 25, 5,5′-carbonylbis(1,3-dioxo-indan-2-carboxylic acid ((phenyl)methyl)-amide)], for which the inhibition at 5 µM stood at 63% and the inhibition at 10 µM was 70%. The IC50 under setting [1] was found to be 6.24 µM.
On the same counts, the results for `CC(C)(C)OC(=O)N[C@@H](Cc1ccccc1)C(=O)C1C(=O)c2ccc(C(=O)c3ccc4c(c3)C(=O)C(C(=O)[C@H](Cc3ccccc3)NC(=O)OC(C)(C)C)C4=O)cc2C1=O` (stereo partly drawn) [Example 157, tert-butyl N-[(2S)-1-(5-{2-[(2S)-2-{[(tert-butoxy)carbonyl]amino}-3-phenylpropanoyl]-1,3-dioxo-2,3-dihydro-1H-indene-5-carbonyl}-1,3-dioxo-2,3-dihydro-1H-inden-2-yl)-1-oxo-3-phenylpropan-2-yl]carbamate] are 100%, 100% and 1.2 µM.

Values taken from US20250281424A1 (New York Blood Center, Inc, priority 2020, published 2025).
